biological target: T1, Bromodomain-containing protein 4 [44-168] (Human, UniProt O60885); experiment: BRD4-BD1 Binding Assay; conditions: 25 °C
T1 construct: 44-168
Procedure: 11 compounds were evaluated against BRD4-BD1 in vitro with compound 28a as the reference compound. BRD4 (44-168 aa) was bought from Active Motif. After preparing 1× assay buffer (modified HEPES Buffer), target compounds were transferred to assay plate by Echo, and the final concentration of DMSO solution was 0.1%. Then the preparation of protein solution and substrate solution in 1× assay buffer was performed. After that, 5 µL of protein solution was transferred to assay plate and incubated at room temperature for 15 min. The protein concentration was 5 nM. Then 5 µL of substrate solution was added to each well to start reaction with an incubation period for 60 min at room temperature. Finally, 15 µL acceptor and donor solution were added, followed by another incubation period for 60 min at room temperature under subdued light.

Compound	IC50
COc1ccc(CN2c3cc(-c4c(C)noc4C)ccc3N(C)C(=O)[C@H]2C)cc1 [(R)-6-(3,5-dimethylisoxazol-4-yl)-4-(4-methoxybenzyl)-1,3-dimethyl-3,4-dihydroquinoxalin-2(1H)-one (8)]	220 nM
CC[C@@H]1C(=O)Nc2ccc(-c3c(C)noc3C)cc2N1Cc1ccccc1 [(R)-4-benzyl-6-(3,5-dimethylisoxazol-4-yl)-3-ethyl-3,4-dihydroquinoxalin-2(1H)-one (5i)]	73 nM
Cc1noc(C)c1-c1ccc2c(c1)N(C1CCCC1)[C@H](C)C(=O)N2 [4(R)-4-cyclopentyl-6-(3,5-dimethylisoxazol-4-yl)-3-methyl-3,4-dihydroquinoxalin 2(1H)-one (5]	370 nM

The remaining compounds from weak to strong by IC50, led by results:

IC50	Compound
650 nM	Cc1noc(C)c1-c1ccc2c(c1)N(Cc1ccccc1)C(CO)C(=O)N2 [8(R)-4-benzyl-6-(3,5-dimethylisoxazol-4-yl)-3-(hydroxymethyl)-3,4-dihydroquinoxalin-2(1H)-one (5h)]
500 nM	Cc1noc(C)c1-c1ccc2c(c1)N(Cc1ccc(Cl)cc1)CC(=O)N2 [4-(4-Chlorobenzyl)-6-(3,5-dimethylisoxazol-4-yl)-3,4-dihydroquinoxalin-2(1H)-one (5k)]
160 nM	COc1ccc(CN2c3cc(-c4c(C)noc4C)ccc3NC(=O)C2C)cc1 [2(R)-6-(3,5-dimethylisoxazol-4-yl)-4-(4-methoxybenzyl)-3-methyl-3,4-dihydroquinoxalin-2(1H)-one (5b)]
151 nM	Cc1noc(C)c1-c1ccc2c(c1)N(Cc1ccccc1)[C@H](Cc1ccccc1)C(=O)N2 [(R)-3,4-dibenzyl-6-(3,5-dimethylisoxazol-4-yl)-3,4-dihydroquinoxalin-2(1H)-one (5j)]
